Data set [1] deals with T1, Dh-mPPase (Desulfitobacterium hafniense, UniProt B8FXV7).
T1 construct: gene hppA; full-length membrane protein expressed in E. coli C41(DE3)ril, assayed in inverted membrane vesicles; homodimer; K+-dependent H+-transporting, EC 7.1.3.1
T1 sequence (B8FXV7 1-671): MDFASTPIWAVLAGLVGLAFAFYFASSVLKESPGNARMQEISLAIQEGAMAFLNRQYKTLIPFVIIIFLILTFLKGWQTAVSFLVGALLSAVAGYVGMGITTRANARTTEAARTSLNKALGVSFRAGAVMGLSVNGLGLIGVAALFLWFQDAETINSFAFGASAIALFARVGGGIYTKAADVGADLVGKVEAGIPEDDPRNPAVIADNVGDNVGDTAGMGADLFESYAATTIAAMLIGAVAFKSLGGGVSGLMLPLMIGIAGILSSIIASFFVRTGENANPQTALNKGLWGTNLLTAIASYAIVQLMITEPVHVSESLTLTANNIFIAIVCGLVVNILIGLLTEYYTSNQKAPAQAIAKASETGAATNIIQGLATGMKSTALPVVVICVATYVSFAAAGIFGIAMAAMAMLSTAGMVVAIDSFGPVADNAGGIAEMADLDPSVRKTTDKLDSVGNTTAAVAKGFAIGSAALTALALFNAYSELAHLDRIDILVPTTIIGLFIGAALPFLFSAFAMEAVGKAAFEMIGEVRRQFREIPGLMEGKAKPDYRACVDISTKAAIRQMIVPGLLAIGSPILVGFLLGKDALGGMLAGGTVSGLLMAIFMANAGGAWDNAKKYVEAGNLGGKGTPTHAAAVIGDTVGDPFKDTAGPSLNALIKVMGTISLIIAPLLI
The experiment in a line: continuous Pi analyzer assay of PPi hydrolysis, inverted membrane vesicles, global fit. It is filed as biochemical. From the text:
continuous Pi analyzer assay of PPi hydrolysis, inverted membrane vesicles, global fit on Dh-mPPase

Substrate in data set [2]: O=P(O)(O)OP(=O)(O)O
Kind of data set: cells, lysate or membranes. To be noted: varied free Mg2+ (extrapolated to Mg2+ saturation), 50 mM K+, 0.1 M MOPS-KOH pH 7.2, 25 °C, no inhibitor, first site of dimer, macroscopic, substrate counted as Mg2PPi. The format is biochemical, Desulfitobacterium hafniense.

Where two headings read alike, the source gives them in different places.

`CC(O)(P(=O)(O)O)P(=O)(O)O` [HEDP]: the Ki in data set [1] (read-out: Value / HEDP) came to 27 ± 1 µM. Turning to `O=P(O)(O)NP(=O)(O)O` [IDP], the Ki in data set [1] (read-out: Value / IDP) was 4.2 ± 0.2 µM. Regarding `NC(P(=O)(O)O)P(=O)(O)O` [AMDP], in data set [1] (read-out: Value / AMDP), the Ki was 0.4 ± 0.02 µM.

B1: Dh-mPPase (Desulfitobacterium hafniense DCB-2) (protein)
chain: MDFASTPIWAVLAGLVGLAFAFYFASSVLKESPGNARMQEISLAIQEGAMAFLNRQYKTLIPFVIIIFLILTFLKGWQTAVSFLVGALLSAVAGYVGMGITTRANARTTEAARTSLNKALGVSFRAGAVMGLSVNGLGLIGVAALFLWFQDAETINSFAFGASAIALFARVGGGIYTKAADVGADLVGKVEAGIPEDDPRNPAVIADNVGDNVGDTAGMGADLFESYAATTIAAMLIGAVAFKSLGGGVSGLMLPLMIGIAGILSSIIASFFVRTGENANPQTALNKGLWGTNLLTAIASYAIVQLMITEPVHVSESLTLTANNIFIAIVCGLVVNILIGLLTEYYTSNQKAPAQAIAKASETGAATNIIQGLATGMKSTALPVVVICVATYVSFAAAGIFGIAMAAMAMLSTAGMVVAIDSFGPVADNAGGIAEMADLDPSVRKTTDKLDSVGNTTAAVAKGFAIGSAALTALALFNAYSELAHLDRIDILVPTTIIGLFIGAALPFLFSAFAMEAVGKAAFEMIGEVRRQFREIPGLMEGKAKPDYRACVDISTKAAIRQMIVPGLLAIGSPILVGFLLGKDALGGMLAGGTVSGLLMAIFMANAGGAWDNAKKYVEAGNLGGKGTPTHAAAVIGDTVGDPFKDTAGPSLNALIKVMGTISLIIAPLLI
notes: full-length membrane protein expressed in E. coli C41(DE3)ril, assayed in inverted membrane vesicles; homodimer; K+-dependent H+-transporting, EC 7.1.3.1
Regarding B1, in data set [2], the Km (in general, the concentration of substrate that gives half-maximal velocity) is given as 2.2 ± 0.1 µM.

The values above are taken from article PMC8469034, “Catalytic Asymmetry in Homodimeric H^+-Pumping Membrane Pyrophosphatase Demonstrated by Non-Hydrolyzable Pyrophosphate Analogs” (International Journal of Molecular Sciences, 2021).
